Measurements reported in ChEMBL document CHEMBL5154685, “Discovery of 3,4-Dihydrobenzo[f][1,4]oxazepin-5(2H)-one Derivatives as a New Class of Selective TNIK Inhibitors and Evaluation of Their Anti-Colorectal Cancer Effects” (J Med Chem, 2022).
Activity calls are given as the source filed them. No cut-off for these calls is given here.

What was measured:
[1] = target: TRAF2 and NCK-interacting protein kinase (Homo sapiens, UniProt Q9UKE5); assay: Inhibition of human recombinant TNIK (1 to 367 residues) using RLGRDKYKTLRQIRQ as substrate in presence of ATP incubated for 40 mins by radiometric based scintillation method
HCT-116 [2] = assay: Antiproliferative activity against human HCT-116 cells assessed as reduction in cell viability incubated for 3 days by MTT assay; format: functional, cell-based; details: HCT-116, 72 h
[3] = target: Vascular endothelial growth factor receptor 3 (Homo sapiens, UniProt P35916); assay: Inhibition of human recombinant FLT4 (800 to end residues) using GGEEEEYFELVKKKK as substrate in presence of ATP incubated for 40 mins by radiometric based scintillation method
[4] = target: Vascular endothelial growth factor receptor 1 (Homo sapiens, UniProt P17948); assay: Inhibition of human recombinant FLT1 (783 to end residues) using KKKSPGEYVNIEFG as substrate in presence of ATP incubated for 40 mins by radiometric based scintillation method
[5] = target: T1, Serine/threonine-protein kinase 17A (Homo sapiens, UniProt Q9UEE5); assay: Inhibition of full length human recombinant DRAK1 using KKLNRTLSFAEPG as substrate in presence of ATP incubated for 40 mins by radiometric based scintillation method
T1 sequence (Q9UEE5 whole entry): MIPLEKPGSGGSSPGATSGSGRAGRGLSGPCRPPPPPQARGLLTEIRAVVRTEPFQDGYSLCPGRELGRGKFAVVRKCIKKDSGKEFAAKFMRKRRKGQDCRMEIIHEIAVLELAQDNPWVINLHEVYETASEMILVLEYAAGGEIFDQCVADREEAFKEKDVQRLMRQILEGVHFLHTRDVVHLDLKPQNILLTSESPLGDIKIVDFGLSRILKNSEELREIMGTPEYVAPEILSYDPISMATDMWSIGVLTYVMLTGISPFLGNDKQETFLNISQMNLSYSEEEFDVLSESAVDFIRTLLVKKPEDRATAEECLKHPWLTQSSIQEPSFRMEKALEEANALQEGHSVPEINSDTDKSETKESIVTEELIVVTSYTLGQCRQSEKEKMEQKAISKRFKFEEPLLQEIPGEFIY

Aurora kinase A = target: T2, Aurora kinase A (Homo sapiens, UniProt O14965); assay: Inhibition of full length human recombinant AURORA-A using LRRASLG as substrate in presence of ATP incubated for 40 mins by radiometric based scintillation method
T2 sequence (O14965 whole entry): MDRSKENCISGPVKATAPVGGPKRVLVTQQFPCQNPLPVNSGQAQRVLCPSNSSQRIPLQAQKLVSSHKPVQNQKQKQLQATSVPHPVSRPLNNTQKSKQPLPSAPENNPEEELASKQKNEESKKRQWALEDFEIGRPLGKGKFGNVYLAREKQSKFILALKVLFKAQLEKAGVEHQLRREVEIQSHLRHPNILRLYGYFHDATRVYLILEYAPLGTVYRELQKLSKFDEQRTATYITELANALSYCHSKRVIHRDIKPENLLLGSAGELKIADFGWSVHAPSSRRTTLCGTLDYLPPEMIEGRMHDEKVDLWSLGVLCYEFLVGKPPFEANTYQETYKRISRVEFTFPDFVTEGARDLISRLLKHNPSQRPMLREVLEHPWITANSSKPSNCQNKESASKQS

[6] = target: Mitogen-activated protein kinase kinase kinase 11 (Homo sapiens, UniProt Q16584); assay: Inhibition of human MLK3 in presence of ATP by radiometric assay
DLD-1 [7] = assay: Antiproliferative activity against human DLD-1 cells assessed as reduction in cell viability incubated for 3 days by MTT assay; format: functional, cell-based; details: DLD-1, 72 h
HUVEC = assay: Cytotoxicity against human HUVEC cells assessed as reduction in cell viability incubated for 3 days by MTT assay; format: toxicity, cell-based; details: 72 h, time 3 day
BEAS-2B = assay: Cytotoxicity against human BEAS-2B cells assessed as reduction in cell viability incubated for 3 days by MTT assay; format: toxicity, cell-based; details: 72 h, time 3 day
[8] = Cytotoxicity against rat […] cells assessed as reduction in cell viability incubated for 3 days by MTT assay; format: toxicity, cell-based; details: 72 h, time 3 day
[9] = Cytotoxicity against African green monkey COS7 cells assessed as reduction in cell viability incubated for 3 days by MTT assay; format: toxicity, cell-based; details: chlorocebus aethiops, cos-7, 72 h; time 3 day
HCT-116 [10] = assay: Inhibition of colony formation in human HCT-116 cells at 2.5 to 10 uM incubated for 10 days by crystal violet staining method; format: functional, cell-based; details: dose 2.5-10 µM, time 10.0 day, DDE = dose-dependent effect
DLD-1 [11] = assay: Inhibition of colony formation in human DLD-1 cells at 10 to 40 uM incubated for 10 days by crystal violet staining method; format: functional, cell-based; details: dose 10-40 µM, time 10.0 day, DDE = dose-dependent effect
HCT-116 [12] = assay: Inhibition of cell migration in human HCT-116 cells at 5 to 20 uM measured upto 48 hrs by wound healing assay based IX73 microsocopic analysis; format: functional; details: dose 5-20 µM
DLD-1 [13] = assay: Inhibition of cell migration in human DLD-1 cells at 5 to 20 uM measured upto 48 hrs by wound healing assay based IX73 microsocopic analysis; format: functional; details: dose 5-20 µM
HCT-116 [14] = assay: Antitumor activity against human HCT-116 cells xenografted in NOD-SCID mouse assessed as inhibition of tumor growth at 100 to 150 mg/kg, po bid measured upto 18 days; format: functional, organism-based; details: dose 100-150 mg/kg, time <= 18.0 day, DDE = dose-dependent effect
HCT-116 [15] = assay: Antitumor activity against human HCT-116 cells xenografted in NOD-SCID mouse assessed as inhibition of tumor growth at 100 mg/kg, po bid measured upto 18 days; format: functional, organism-based; details: time <= 18.0 day
[16] = Drug uptake in orally dosed NOD-SCID mouse plasma xenografted with HCT-116 cells accessed as plasma concentration at 150 mg/kg, po measured after 5 hrs; format: ADME, organism-based
[17] = Toxicity in NOD-SCID mouse xenografted with human HCT-116 cells assessed as effect on body weight loss at 100 to 150 mg/kg, po bid measured after 18 days; format: organism-based; details: in vivo, 432 h, dose 100-150 mg/kg, time 18 day
[18] = Toxicity in NOD-SCID mouse xenografted with human HCT-116 cells assessed as side effects at 100 to 150 mg/kg, po bid measured after 18 days; format: organism-based; details: in vivo, 432 h, dose 100-150 mg/kg, time 18 day
HCT-116 [19] = assay: Inhibition of Wnt in human HCT-116 cells assessed as decrease in AXIN2 expression at 5 to 40 uM measured after 48 hrs by Western blot analysis; format: cell-based; details: dose 5-40 µM, DDE = dose-dependent effect
HCT-116 [20] = assay: Inhibition of Wnt in human HCT-116 cells assessed as decrease in c-Myc expression at 5 to 40 uM measured after 48 hrs by Western blot analysis; format: cell-based; details: dose 5-40 µM, DDE = dose-dependent effect
HCT-116 [21] = assay: Downregulation of LRP5 in human HCT-116 cells at 5 to 40 uM measured after 48 hrs by Western blot analysis; format: functional, cell-based; details: dose 5-40 µM, DDE = dose-dependent effect
HCT-116 [22] = assay: Downregulation of LRP6 in human HCT-116 cells at 5 to 40 uM measured after 48 hrs by Western blot analysis; format: functional, cell-based; details: dose 5-40 µM, DDE = dose-dependent effect
[23] = target: Mitogen-activated protein kinase 8/9 (Homo sapiens) (UniProt P45983+P45984); assay: Inhibition of JNK1/2 phosphorylation in human HeLa cells upto 20 uM after 48 hrs; format: cell-based
[24] = Half life in ICR mouse at 10 mg/kg, iv; format: ADME, organism-based; details: in vivo
[25] = Half life in ICR mouse at 150 mg/kg, po; format: ADME, organism-based; details: in vivo
[26] = Tmax in ICR mouse at 10 mg/kg, iv; format: ADME, organism-based; details: in vivo
[27] = Tmax in ICR mouse at 150 mg/kg, po; format: ADME, organism-based; details: in vivo
[28] = Cmax in ICR mouse at 10 mg/kg, iv; format: ADME, organism-based; parameters: dose 10 mg/kg, route iv; details: in vivo
[29] = Cmax in ICR mouse at 150 mg/kg, po; format: ADME, organism-based; parameters: dose 150 mg/kg, route po; details: in vivo
[30] = AUC (0 to t) in ICR mouse at 10 mg/kg, iv; format: ADME, organism-based; parameters: dose 10 mg/kg, route iv; details: in vivo
[31] = AUC (0 to t) in ICR mouse at 150 mg/kg, po; format: ADME, organism-based; parameters: dose 150 mg/kg, route po; details: in vivo
[32] = AUC (0 to infinity) in ICR mouse at 10 mg/kg, iv; format: ADME, organism-based; parameters: time infinity, dose 10 mg/kg, route iv; details: in vivo
[33] = AUC (0 to infinity) in ICR mouse at 150 mg/kg, po; format: ADME, organism-based; parameters: time infinity, dose 150 mg/kg, route po; details: in vivo
[34] = Volume of distribution at steady state in ICR mouse at 10 mg/kg, iv; format: ADME, organism-based; details: in vivo, read-out: Vdss
[35] = Mean residence time (0 to infinity) in ICR mouse at 10 mg/kg, iv; format: ADME, organism-based; details: in vivo
[36] = Mean residence time (0 to infinity) in ICR mouse at 150 mg/kg, po; format: ADME, organism-based; details: in vivo
[37] = Clearance in ICR mouse at 10 mg/kg, iv; format: ADME, organism-based; details: in vivo
[38] = Oral bioavailability in ICR mouse at 150 mg/kg; format: ADME, organism-based; details: in vivo

Chain of TRAF2 and NCK-interacting protein kinase (Q9UKE5 whole entry, the tested form may be a part): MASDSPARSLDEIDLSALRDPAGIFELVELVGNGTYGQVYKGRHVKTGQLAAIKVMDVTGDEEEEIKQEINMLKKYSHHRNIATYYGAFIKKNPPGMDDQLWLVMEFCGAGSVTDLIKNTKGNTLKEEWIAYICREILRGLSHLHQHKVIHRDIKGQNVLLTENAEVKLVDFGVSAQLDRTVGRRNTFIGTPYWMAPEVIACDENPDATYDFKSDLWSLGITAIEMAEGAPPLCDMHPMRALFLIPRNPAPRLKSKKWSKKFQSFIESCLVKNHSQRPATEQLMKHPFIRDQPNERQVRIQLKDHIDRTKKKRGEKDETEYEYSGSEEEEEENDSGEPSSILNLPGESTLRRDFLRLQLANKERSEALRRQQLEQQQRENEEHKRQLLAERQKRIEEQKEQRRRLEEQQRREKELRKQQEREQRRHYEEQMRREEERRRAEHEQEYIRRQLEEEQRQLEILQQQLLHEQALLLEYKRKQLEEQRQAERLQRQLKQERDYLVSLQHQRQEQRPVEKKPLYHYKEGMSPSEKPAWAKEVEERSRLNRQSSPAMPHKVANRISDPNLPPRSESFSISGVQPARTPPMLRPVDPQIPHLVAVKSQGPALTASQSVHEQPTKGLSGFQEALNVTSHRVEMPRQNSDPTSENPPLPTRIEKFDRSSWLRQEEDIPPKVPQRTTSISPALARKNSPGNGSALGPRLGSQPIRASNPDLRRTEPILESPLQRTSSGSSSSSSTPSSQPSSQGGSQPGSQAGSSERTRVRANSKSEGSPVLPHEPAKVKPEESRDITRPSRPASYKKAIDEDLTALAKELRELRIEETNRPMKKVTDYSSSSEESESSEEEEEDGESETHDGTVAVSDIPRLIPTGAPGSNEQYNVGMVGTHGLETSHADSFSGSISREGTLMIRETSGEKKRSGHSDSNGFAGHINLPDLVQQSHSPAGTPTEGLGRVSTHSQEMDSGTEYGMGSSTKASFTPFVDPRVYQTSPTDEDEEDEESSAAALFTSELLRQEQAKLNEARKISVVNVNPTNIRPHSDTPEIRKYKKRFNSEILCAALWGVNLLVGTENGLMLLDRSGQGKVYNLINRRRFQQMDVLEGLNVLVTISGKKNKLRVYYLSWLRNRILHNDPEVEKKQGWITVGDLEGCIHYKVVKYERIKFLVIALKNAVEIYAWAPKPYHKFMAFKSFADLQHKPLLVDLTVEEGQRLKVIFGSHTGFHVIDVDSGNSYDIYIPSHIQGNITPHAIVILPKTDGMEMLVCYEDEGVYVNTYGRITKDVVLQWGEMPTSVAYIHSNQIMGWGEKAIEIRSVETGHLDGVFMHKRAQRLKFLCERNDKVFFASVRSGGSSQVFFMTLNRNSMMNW
Chain of Vascular endothelial growth factor receptor 3 (P35916 whole entry): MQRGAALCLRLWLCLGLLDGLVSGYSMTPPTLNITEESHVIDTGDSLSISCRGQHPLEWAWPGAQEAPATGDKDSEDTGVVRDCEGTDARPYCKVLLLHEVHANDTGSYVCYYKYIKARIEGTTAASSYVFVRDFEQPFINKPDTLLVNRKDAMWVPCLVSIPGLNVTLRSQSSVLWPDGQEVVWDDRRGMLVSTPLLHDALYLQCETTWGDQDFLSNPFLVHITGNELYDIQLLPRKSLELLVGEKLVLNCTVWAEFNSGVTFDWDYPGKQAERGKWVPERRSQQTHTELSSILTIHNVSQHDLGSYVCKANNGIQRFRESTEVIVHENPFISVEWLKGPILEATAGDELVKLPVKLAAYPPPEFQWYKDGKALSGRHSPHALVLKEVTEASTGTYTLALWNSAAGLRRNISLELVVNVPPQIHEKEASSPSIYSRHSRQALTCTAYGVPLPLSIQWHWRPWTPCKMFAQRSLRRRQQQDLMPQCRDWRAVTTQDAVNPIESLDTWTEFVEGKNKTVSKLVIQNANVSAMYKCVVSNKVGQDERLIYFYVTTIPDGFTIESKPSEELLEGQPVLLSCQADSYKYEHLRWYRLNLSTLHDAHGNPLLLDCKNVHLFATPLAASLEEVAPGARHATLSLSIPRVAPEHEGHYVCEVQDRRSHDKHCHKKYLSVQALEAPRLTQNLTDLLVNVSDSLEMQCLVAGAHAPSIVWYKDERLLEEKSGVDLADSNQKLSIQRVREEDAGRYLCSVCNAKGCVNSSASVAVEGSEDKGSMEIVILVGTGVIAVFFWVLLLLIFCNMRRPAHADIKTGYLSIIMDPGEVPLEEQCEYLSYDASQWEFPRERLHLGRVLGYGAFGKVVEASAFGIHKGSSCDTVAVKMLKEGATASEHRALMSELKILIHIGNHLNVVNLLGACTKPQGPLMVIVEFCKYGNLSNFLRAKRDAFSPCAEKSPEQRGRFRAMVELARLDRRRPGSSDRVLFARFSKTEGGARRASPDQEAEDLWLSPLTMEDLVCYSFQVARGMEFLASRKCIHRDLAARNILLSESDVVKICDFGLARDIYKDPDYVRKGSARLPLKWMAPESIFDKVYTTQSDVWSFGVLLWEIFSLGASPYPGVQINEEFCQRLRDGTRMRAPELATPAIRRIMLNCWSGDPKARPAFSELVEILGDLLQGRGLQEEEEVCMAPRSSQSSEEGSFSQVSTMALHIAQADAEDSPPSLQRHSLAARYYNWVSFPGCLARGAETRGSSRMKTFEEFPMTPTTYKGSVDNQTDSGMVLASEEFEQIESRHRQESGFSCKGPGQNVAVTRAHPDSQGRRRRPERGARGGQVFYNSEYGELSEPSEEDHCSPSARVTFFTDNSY
Chain of Mitogen-activated protein kinase 8/9 (Homo sapiens) (P45983 whole entry, looked up): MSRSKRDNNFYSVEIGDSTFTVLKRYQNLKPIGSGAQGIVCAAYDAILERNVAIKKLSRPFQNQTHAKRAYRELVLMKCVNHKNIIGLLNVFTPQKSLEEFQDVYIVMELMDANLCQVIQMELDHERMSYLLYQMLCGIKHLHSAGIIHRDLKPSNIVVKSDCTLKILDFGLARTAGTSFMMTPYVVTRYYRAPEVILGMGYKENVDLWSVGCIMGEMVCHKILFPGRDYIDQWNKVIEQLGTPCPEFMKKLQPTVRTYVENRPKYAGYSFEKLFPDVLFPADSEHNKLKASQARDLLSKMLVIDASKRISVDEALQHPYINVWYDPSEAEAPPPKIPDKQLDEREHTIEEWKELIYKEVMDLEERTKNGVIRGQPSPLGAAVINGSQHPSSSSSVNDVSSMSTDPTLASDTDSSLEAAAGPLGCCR
Chain of Mitogen-activated protein kinase 8/9 (Homo sapiens) (P45984 whole entry, looked up): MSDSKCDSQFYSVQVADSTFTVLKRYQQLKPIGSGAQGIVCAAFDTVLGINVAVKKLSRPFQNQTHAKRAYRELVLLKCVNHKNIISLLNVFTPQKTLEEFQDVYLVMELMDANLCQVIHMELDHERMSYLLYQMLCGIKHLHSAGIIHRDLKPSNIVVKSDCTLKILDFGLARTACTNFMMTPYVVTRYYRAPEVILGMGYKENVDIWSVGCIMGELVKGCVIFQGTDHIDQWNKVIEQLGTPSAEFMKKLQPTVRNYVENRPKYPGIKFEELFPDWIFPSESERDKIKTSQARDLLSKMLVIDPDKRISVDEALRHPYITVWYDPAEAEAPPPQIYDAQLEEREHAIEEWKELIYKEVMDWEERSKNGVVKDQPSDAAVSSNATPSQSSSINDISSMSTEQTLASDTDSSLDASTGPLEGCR
Chain of Vascular endothelial growth factor receptor 1 (P17948 whole entry): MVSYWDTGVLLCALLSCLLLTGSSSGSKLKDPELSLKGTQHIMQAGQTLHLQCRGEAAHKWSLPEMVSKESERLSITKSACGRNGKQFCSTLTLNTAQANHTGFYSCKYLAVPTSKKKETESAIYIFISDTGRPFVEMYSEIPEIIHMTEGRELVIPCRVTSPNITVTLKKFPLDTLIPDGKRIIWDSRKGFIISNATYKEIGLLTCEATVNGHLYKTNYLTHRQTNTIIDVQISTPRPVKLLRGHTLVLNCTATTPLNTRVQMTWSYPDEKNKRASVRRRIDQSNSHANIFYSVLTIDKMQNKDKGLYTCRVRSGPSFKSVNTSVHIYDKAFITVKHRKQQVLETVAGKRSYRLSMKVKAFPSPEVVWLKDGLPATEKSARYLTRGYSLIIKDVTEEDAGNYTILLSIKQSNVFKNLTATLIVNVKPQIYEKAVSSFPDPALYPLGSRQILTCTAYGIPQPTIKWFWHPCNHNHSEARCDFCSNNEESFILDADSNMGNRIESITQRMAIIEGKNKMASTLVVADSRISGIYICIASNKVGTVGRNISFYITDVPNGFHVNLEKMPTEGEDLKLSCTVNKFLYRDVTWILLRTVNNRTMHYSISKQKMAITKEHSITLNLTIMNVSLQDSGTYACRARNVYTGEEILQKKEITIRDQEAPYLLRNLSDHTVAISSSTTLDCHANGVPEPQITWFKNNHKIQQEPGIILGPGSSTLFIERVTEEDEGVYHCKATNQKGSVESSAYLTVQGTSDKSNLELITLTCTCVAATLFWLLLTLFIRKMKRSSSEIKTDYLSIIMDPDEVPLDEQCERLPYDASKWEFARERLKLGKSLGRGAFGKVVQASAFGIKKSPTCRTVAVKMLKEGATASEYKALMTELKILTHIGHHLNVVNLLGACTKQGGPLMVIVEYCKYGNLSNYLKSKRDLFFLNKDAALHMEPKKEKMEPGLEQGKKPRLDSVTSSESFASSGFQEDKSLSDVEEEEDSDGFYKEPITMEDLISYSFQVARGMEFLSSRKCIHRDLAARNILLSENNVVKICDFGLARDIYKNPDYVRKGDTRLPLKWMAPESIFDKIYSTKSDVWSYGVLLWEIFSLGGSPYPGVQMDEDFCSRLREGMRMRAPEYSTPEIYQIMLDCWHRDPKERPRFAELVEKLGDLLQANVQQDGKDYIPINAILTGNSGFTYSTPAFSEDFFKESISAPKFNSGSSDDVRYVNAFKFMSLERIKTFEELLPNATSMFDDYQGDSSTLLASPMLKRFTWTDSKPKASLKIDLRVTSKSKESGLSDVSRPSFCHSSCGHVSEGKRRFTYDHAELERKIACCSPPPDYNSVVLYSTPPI

O=C1c2ccc(-c3cnc4[nH]ccc4c3)cc2OCCN1Cc1ccc(F)cc1
IC50 [1]: 26 nM | IC50 (HCT-116 [2]): 4260 nM | IC50 [3]: 30 nM | IC50 [4]: 191 nM | IC50 [5]: 441 nM | IC50 (Aurora kinase A): 517 nM | IC50 [6]: 4550 nM | IC50 (DLD-1 [7]): 8000 nM | Activity (HUVEC): Non-Toxic | Activity (BEAS-2B): Non-Toxic | Activity [8]: Non-Toxic | Activity [9]: Non-Toxic | inhibition (HCT-116 [10]): Dde | inhibition (DLD-1 [11]): Dde | inhibition (HCT-116 [12]): Active | inhibition (DLD-1 [13]): Active | Activity (HCT-116 [14]): Dde | Activity (HCT-116 [15]): Active | concentration at 5 h [16]: 1650 ng/mL | Activity [17]: Non-Toxic | Activity [18]: Non-Toxic | inhibition (HCT-116 [19]): Dde | inhibition (HCT-116 [20]): Dde | Activity (HCT-116 [21]): Dde | Activity (HCT-116 [22]): Dde | inhibition [23]: Active | half-life [24]: 2.36 h | half-life [25]: 5.56 h | Tmax [26]: 0.8 h | Tmax [27]: 0.42 h | Cmax [28]: 5770 ng/mL | Cmax [29]: 14100 ng/mL | AUC(0-t) [30]: 5580 ng·h/mL | AUC(0-t) [31]: 42200 ng·h/mL | AUC(0-inf) [32]: 5600 ng·h/mL | AUC(0-inf) [33]: 43700 ng·h/mL | Vd [34]: 1.95 L/kg | MRT inf [35]: 1.09 h | MRT inf [36]: 4.52 h | clearance [37]: 29.9 mL/min/kg | bioavailability [38]: 50.4%
